# Reference: patent publication US9045403B2 (Coyote Pharmaceuticals, Inc., priority 2012, dated 2015)
# Several values for one entry are separate records, joined by “and”; a condition that tells them apart may be missing. Equal values may be shown once.
# Key:
# Neuro2A cells = Neuro2A cells that extended neurites, with GGTI-298 (Example 18); format: cell-based, mouse; settings: 0.1-1 μM, vehicle 0.0-0.20
# Excerpt: After differentiation was induced, cells that extended neurites were counted.
# [1] = tested on: Sprague Dawley rats, KA injected into the hippocampus; assay: Neuroprotection by CNS-102 in the presence of GGA cis-isomer in the kainic acid model; format: in vivo; settings: 24 mg/Kg rat oral; KA at 72 hours
# Description: After dosing, KA was stereotactically injected into the hippocampus at 72 hours to induce neuron damage. After 24 h, hippocampus tissue was collected, stained, and imaged. The scans were analyzed by Image J to calculate the fraction of cells having KA-induced damage.
# HSP70 [2] = assay: HSP70 expression in Neuro2A cells by western blot; format: cell-based, mouse; settings: Neuro2A cells, western blot
# Description: Differentiation was induced and cells incubated with geranylgeranyl transferase I inhibitor, GGTI-298. Cells were harvested and lysates were prepared and analyzed by western blot for HSP70 and HSP90. Western signals in the absence of the compounds were normalized as 1.00.
# [3] = tested on: Mouse Neuro2A neuroblastoma cells; assay: Neuro2A cells with neurites after GGTI-298 (Example 16); format: cell-based; settings: 10 μM, 48 hrs
# Description: Mouse Neuro2A neuroblastoma cells were cultured in DMEM supplemented with 10% FBS for 24 hrs. […] Then differentiation was induced by retinoic acid in DMEM supplemented with 2% FBS. The cell culture was incubated with a Geranylgeranyl Transferase inhibitor, GGTI-298. […]
# [4] = tested on: Sprague-Dawley rats injected with Kainic acid; assay: Kainic acid induced neurodegeneration and seizure in rats (Example 21); format: in vivo, rat; settings: oral
# Excerpt: Seizure behaviors were observed and scored (Ref. R. J. Racine, Modification of seizure activity by electrical stimulation: II. Motor seizure, Electroencephalogr. Clin. Neurophysiol. 32 (1972) 281-294. Modifications were made for the methods). Brain tissues of rats were sectioned on histology slides, and neurons in hippocampus tissues were stained by Nissl. Neurons damaged by Kainic acid and behavior scores were quantified.
# rats, kainic acid model = assay: Concentration dependence of neuroprotection in the kainic acid model; format: in vivo, rat; settings: one dose at 0, 1, 3, 6, 12 or 24 mg/kg; fraction of cells damaged
# Description: The fraction of cells damaged in the kainic acid model was determined on 130 rats, each receiving one dose of CNS-102 at either 0, 1, 3, 6, 12 or 24 mg/kg. PBS was used for dosing at 0 mg/kg. The linear model of the log10 percent damage versus concentration is graphically shown FIG. 5.
# [5] = Pharmacokinetics of CNS-102 in rats, IV and oral; format: in vivo; settings: rat
# Description: Rats were administered a single dose of CNS-102 either intravenously (12 mg/kg) or orally (24 mg/kg), and blood samples were taken to measure the average plasma concentrations of CNS-102 over time.
# The formulation for this study includes the following: […]
# AUC(0-last) (min*ng/ml): area under the concentration-time curve from zero up to the last measurable time-point.
# lz (1/min): the first order rate constant associated with the terminal (log-linear) portion of the curve, estimated by linear regression of time vs. log concentration.
# Terminal Half-Life (t½)=ln(2)/lz: calculated using Lambda_z method to find best fit. If necessary, the concentration-time points were manually selected for use in the calculation. Bolded-italicized concentrations indicate points used for calculation.
# AUC(0-inf) (min*ng/ml): Area under the concentration-time curve from zero up to infinity, based on the last observed concentration. Requires lz.
# [6] = tested on: Sprague Dawley rats, KA injected into the hippocampus; assay: Time course of neuroprotection in the kainic acid model; format: in vivo, rat; settings: for Difference of mean fraction damaged to pooled PBS / Mean fraction of hippocampus cells having KA-induced damage: 12 mg/kg oral; for Mean fraction of hippocampus cells having KA-induced damage: pooled PBS 0.187
# Description: CNS-102 was administered orally to Sprague Dawley rats at 12 mg/kg. After dosing, KA was stereotactically injected into the hippocampus at 24, 48, 72, 96 and 168 hours to induce neuron damage. After 24 h, hippocampus tissue was collected, stained, and imaged. The scans were analyzed by Image J to calculate the fraction of cells having KA-induced damage. Average fraction damaged in the hippocampus from ten animals for each treatment (PBS vs. 12 mg/kg CNS-102) by time (24, 48, 72, 96 and 168 hours) combination was estimated with PROC MIXED in SAS. Comparisons of the CNS-102 treatment groups to the pooled PBS treatment at the different times can be made, giving the results tabulated below.
# HSP70 [7] = assay: HSP70 induction in rat hippocampus with or without stereotactic kainic acid injection; format: in vivo
# Description: Stereotactic injections of Kainic acid into rat hippocampus tissues led to increased damages in neurons. […] Under this condition, neurons and HSP70 expression was stained by immunohistochemistry techniques. HSP70 expression was induced in a very specific area only that KA was injected. The induced area was not stained by HSP70 antibody when KA was not injected, but CNS-102 was dosed.
# HSP70 induction by dosing CNS-102 in the absence of the KA injection was limited in western blot experiments using hippocampus lysates. 120% or 130% of HSP70 expression could be seen by comparing those of vehicle dosing control experiments.
# HSP70 [8] = assay: HSP70 expression in cortex and hippocampus by western blot after oral dosing; format: in vivo, rat; parameters: HSP70 expression, treatment average: scale not given here
# Description: The time course of protein expression, as measured by western blot for HSP70, was determined in triplicate for hippocampus, and cortex tissue samples taken from each of 5 animals per group at each of four time points (24, 48, 72, and 96 h) after treatment with either PBS or 12 mg/kg CNS-102, administered orally. The average expression for each treatment group is calculated at each time point for each tissue using PROC MIXED in SAS and are tabulated, along with the difference (delta) between treatment averages and a p-value comparing the difference to zero, below.
# [9] = Cortex, 24 hours after 12 mg/kg oral
# [10] = Cortex, 48 hours after 12 mg/kg oral
# [11] = Cortex, 72 hours after 12 mg/kg oral
# [12] = Cortex, 96 hours after 12 mg/kg oral
# [13] = Hippocampus, 24 hours after 12 mg/kg oral
# [14] = Hippocampus, 48 hours after 12 mg/kg oral
# [15] = Hippocampus, 72 hours after 12 mg/kg oral
# [16] = Hippocampus, 96 hours after 12 mg/kg oral
compound,measurement,setting,value
CC(=O)CC/C=C(\C)CC/C=C(\C)CC/C=C(\C)CCC=C(C)C [CNS-102],Mean of cell numbers (Arbitrary units),Neuro2A cells,0.45-0.65 Arbitrary units
same,Mean of Hippocampus CA3 neurons damaged (Arbitrary units),[1],19.8182 Arbitrary units
same,induction of HSP70 expression (in words),HSP70 [2],induce expression of HSP70 at various concentrations
same,Mean of cell numbers (Arbitrary units),[3],0.738 Arbitrary units
same,Mean of Hippocampus CA3 neurons damaged (Arbitrary units),[4]; 3 mg/Kg rat,10.25 Arbitrary units
same,Mean of Hippocampus CA3 neurons damaged (Arbitrary units),[4]; 12 mg/Kg rat,10.16 Arbitrary units
same,Mean of Hippocampus CA3 neurons damaged (Arbitrary units),[4]; 25 mg/Kg rat,1.97 Arbitrary units
same,minimal effective dose,"rats, kainic acid model",12 mg/kg
same,"AUC(0-inf), Average",[5]; 12 mg/kg IV,208728 ng·min/mL
same,"AUC(0-last), Average",[5]; 12 mg/kg IV,115146 ng·min/mL
same,"C0, Average",[5]; 12 mg/kg IV,9144.0 ng/mL
same,"Vss, Average",[5]; 12 mg/kg IV,9.796 L/kg
same,"Vz, Average",[5]; 12 mg/kg IV,12.039 L/kg
same,"t1/2, Average",[5]; 12 mg/kg IV,2.45 h
same,"AUC(0-inf), Average",[5]; 24 mg/kg oral,204878 ng·min/mL
same,"AUC(0-last), Average",[5]; 24 mg/kg oral,189114 ng·min/mL
same,"Cmax, Average",[5]; 24 mg/kg oral,752.9 ng/mL
same,"Tmax, Average",[5]; 24 mg/kg oral,5.67 h
same,"t1/2, Average",[5]; 24 mg/kg oral,1.72 h
same,"F(0-inf), Average",[5]; 24 mg/kg oral vs 12 mg/kg IV,49.1%
same,"F(0-last), Average",[5]; 24 mg/kg oral vs 12 mg/kg IV,82.1%
same,Difference of mean fraction damaged to pooled PBS,[6]; KA at 24 hours,0.005
same,Mean fraction of hippocampus cells having KA-induced damage,[6]; KA at 24 hours,0.193
same,Difference of mean fraction damaged to pooled PBS,[6]; KA at 48 hours,−0.064
same,Mean fraction of hippocampus cells having KA-induced damage,[6]; KA at 48 hours,0.123
same,Difference of mean fraction damaged to pooled PBS,[6]; KA at 72 hours,−0.092
same,Mean fraction of hippocampus cells having KA-induced damage,[6]; KA at 72 hours,0.096
same,Difference of mean fraction damaged to pooled PBS,[6]; KA at 96 hours,−0.056
same,Mean fraction of hippocampus cells having KA-induced damage,[6]; KA at 96 hours,0.131
same,Difference of mean fraction damaged to pooled PBS,[6]; KA at 168 hours,−0.026
same,Mean fraction of hippocampus cells having KA-induced damage,[6]; KA at 168 hours,0.162
same,timepoint of maximal protection effect,[6]; single oral dose of 12 mg/kg,72 h
same,HSP70 induction (in words),"HSP70 [7]; KA stereotactically injected in hippocampus, localized in the injection site",a strong induction of HSP70 was seen very clearly
same,HSP70 expression compared with vehicle dosing control,"HSP70 [7]; western blot of hippocampus lysates, absence of the KA injection",120% and 130%
same,"HSP70 expression, delta CNS-PBS",HSP70 [8]; [9],0.24
same,"HSP70 expression, treatment average",HSP70 [8]; [9],−0.016
same,"HSP70 expression, delta CNS-PBS",HSP70 [8]; [10],0.11
same,"HSP70 expression, treatment average",HSP70 [8]; [10],−0.45
same,"HSP70 expression, delta CNS-PBS",HSP70 [8]; [11],0.13
same,"HSP70 expression, treatment average",HSP70 [8]; [11],0.14
same,"HSP70 expression, delta CNS-PBS",HSP70 [8]; [12],0.19
same,"HSP70 expression, treatment average",HSP70 [8]; [12],0.04
same,"HSP70 expression, delta CNS-PBS",HSP70 [8]; [13],−0.088
same,"HSP70 expression, treatment average",HSP70 [8]; [13],−0.159
same,"HSP70 expression, delta CNS-PBS",HSP70 [8]; [14],0.2
same,"HSP70 expression, treatment average",HSP70 [8]; [14],0.02
same,"HSP70 expression, delta CNS-PBS",HSP70 [8]; [15],0.14
same,"HSP70 expression, treatment average",HSP70 [8]; [15],−0.06
same,"HSP70 expression, delta CNS-PBS",HSP70 [8]; [16],0.17
same,"HSP70 expression, treatment average",HSP70 [8]; [16],−0.32
